Measured values from EP0908457B1, “3-(1,2-benzisothiazol- and isoxazol-5-Y1)-2,4(1H,3H)-pyrimidinedione or thione and 3-(1,2-benzisothiazol- and isoxazol-5-y1)-4(3H)-pyrimidinone or thione herbicidal agents” (BASF AKTIENGESELLSCHAFT, priority 1997, dated 1999).

Key:
Type in all cases: in vivo
Sagittaria pygmaea, L. = assay: Preemergence weed control under flooded paddy conditions, SAGPY (Arrowhead (Pygmaea)); conditions: flooded paddy; for herbicidal effect rating, SAGPY: rated three to four weeks after treatment; for SAGPY: herbicidal effect rating 0-9, three to four weeks after treatment; as to herbicidal effect rating, SAGPY: meaning of each grade not given here
Cyperus iria = assay: Preemergence weed control under flooded paddy conditions, CYPIR (Rice Flatsedge); conditions: flooded paddy; for herbicidal effect rating, CYPIR: rated three to four weeks after treatment; for CYPIR: herbicidal effect rating 0-9, three to four weeks after treatment; as to herbicidal effect rating, CYPIR: meaning of each grade not given here
[1] = system: Echinochloa oryzoides (Ard.) Fritsch.; assay: Preemergence weed control under flooded paddy conditions, ECHORC (Watergrass (Calif.)); conditions: flooded paddy; for herbicidal effect rating, ECHORC: rated three to four weeks after treatment; for ECHORC: herbicidal effect rating 0-9, three to four weeks after treatment; as to herbicidal effect rating, ECHORC: meaning of each grade not given here
[2] = system: Cyperus serotinus, Rottb.; assay: Preemergence weed control under flooded paddy conditions, CYPSE (Flatsedge); conditions: for herbicidal effect rating, CYPSE: rated three to four weeks after treatment; as to herbicidal effect rating, CYPSE: meaning of each grade not given here
[3] = system: Monochoria vaginalis, Presl.; assay: Preemergence weed control under flooded paddy conditions, MOOVA (Monochoria); conditions: flooded paddy; for herbicidal effect rating, MOOVA: rated three to four weeks after treatment; for MOOVA: herbicidal effect rating 0-9, three to four weeks after treatment; as to herbicidal effect rating, MOOVA: meaning of each grade not given here
[4] = Rate 0.0320 kg/ha, preemergence
[5] = Rate 0.0620 kg/ha, preemergence
[6] = Rate 0.1250 kg/ha, preemergence
[7] = Rate 0.2500 kg/ha, preemergence
[8] = Rate 0.5000 kg/ha, preemergence
[9] = 0.0320 kg/ha, preemergence weeds
[10] = 0.0620 kg/ha, preemergence weeds
[11] = 0.1250 kg/ha, preemergence weeds
[12] = 0.2500 kg/ha, preemergence weeds
[13] = Rate 0.0320 kg/ha, preemergence weeds
[14] = Rate 0.0620 kg/ha, preemergence weeds
[15] = Rate 0.1250 kg/ha, preemergence weeds
[16] = Rate 0.2500 kg/ha, preemergence weeds

SMILES: Cn1c(C(F)(F)F)cc(=O)n(-c2ccc3snc(COC(=O)Nc4ccccc4)c3c2)c1=O [Example 375, 2,4(1H,3H)-Pyrimidinedione, 3-[3-(hydroxymethyl)-1,2-benzisothiazol-5-yl]-1-methyl-6-(trifluoromethyl)-, phenylcarbamate (ester)]
- herbicidal effect rating, SAGPY (Sagittaria pygmaea, L.; [4]): 7.0
- herbicidal effect rating, SAGPY (Sagittaria pygmaea, L.; [5]): 9.0
- herbicidal effect rating, SAGPY (Sagittaria pygmaea, L.; [6]): 9.0
- herbicidal effect rating, SAGPY (Sagittaria pygmaea, L.; [7]): 9.0
- herbicidal effect rating, CYPIR (Cyperus iria; [4]): 3.0
- herbicidal effect rating, CYPIR (Cyperus iria; [5]): 4.0
- herbicidal effect rating, CYPIR (Cyperus iria; [6]): 6.0
- herbicidal effect rating, CYPIR (Cyperus iria; [7]): 9.0
- herbicidal effect rating, ECHORC [1, 4]: 6.0
- herbicidal effect rating, ECHORC [1, 5]: 6.0
- herbicidal effect rating, ECHORC [1, 6]: 9.0
- herbicidal effect rating, ECHORC [1, 7]: 9.0
- herbicidal effect rating, CYPSE [2, 4]: 0.0
- herbicidal effect rating, CYPSE [2, 5]: 0.0
- herbicidal effect rating, CYPSE [2, 6]: 4.0
- herbicidal effect rating, CYPSE [2, 7]: 7.0
- herbicidal effect rating, MOOVA [3, 4]: 9.0
- herbicidal effect rating, MOOVA [3, 5]: 9.0
- herbicidal effect rating, MOOVA [3, 6]: 9.0
- herbicidal effect rating, MOOVA [3, 7]: 9.0

SMILES: Cn1c(C(F)(F)F)cc(=O)n(-c2ccc3snc(COC(=O)c4ccccc4)c3c2)c1=O [Example 364, 2,4(1H,3H)-Pyrimidinedione, 3-[3-(hydroxymethyl)-1,2-benzisothiazol-5-yl]-1-methyl-6-(trifluoromethyl)-, benzoate (ester)]
- herbicidal effect rating, SAGPY (Sagittaria pygmaea, L.; [4]): 4.0
- herbicidal effect rating, SAGPY (Sagittaria pygmaea, L.; [5]): 4.0
- herbicidal effect rating, SAGPY (Sagittaria pygmaea, L.; [6]): 5.0
- herbicidal effect rating, SAGPY (Sagittaria pygmaea, L.; [7]): 9.0
- herbicidal effect rating, SAGPY (Sagittaria pygmaea, L.; [8]): 9.0
- herbicidal effect rating, CYPIR (Cyperus iria; [4]): 7.0
- herbicidal effect rating, CYPIR (Cyperus iria; [5]): 7.0
- herbicidal effect rating, CYPIR (Cyperus iria; [6]): 9.0
- herbicidal effect rating, CYPIR (Cyperus iria; [7]): 9.0
- herbicidal effect rating, CYPIR (Cyperus iria; [8]): 9.0
- herbicidal effect rating, ECHORC [1, 4]: 3.0
- herbicidal effect rating, ECHORC [1, 5]: 5.0
- herbicidal effect rating, ECHORC [1, 6]: 6.0
- herbicidal effect rating, ECHORC [1, 7]: 6.0
- herbicidal effect rating, ECHORC [1, 8]: 7.0
- herbicidal effect rating, CYPSE [2, 4]: 3.0
- herbicidal effect rating, CYPSE [2, 5]: 3.0
- herbicidal effect rating, CYPSE [2, 6]: 5.0
- herbicidal effect rating, CYPSE [2, 7]: 6.0
- herbicidal effect rating, CYPSE [2, 8]: 7.0
- herbicidal effect rating, MOOVA [3, 4]: 9.0
- herbicidal effect rating, MOOVA [3, 5]: 9.0
- herbicidal effect rating, MOOVA [3, 6]: 9.0
- herbicidal effect rating, MOOVA [3, 7]: 9.0
- herbicidal effect rating, MOOVA [3, 8]: 9.0

SMILES: Cn1c(C(F)(F)F)cc(=O)n(-c2ccc3snc(COC(=O)CCl)c3c2)c1=O [Example 368, 2,4(1H,3H)-Pyrimidinedione, 3-[3-(hydroxymethyl)-1,2-benzisothiazol-5-yl]-1-methyl-6-(trifluoromethyl)-, chloroacetate (ester)]
- herbicidal effect rating, SAGPY (Sagittaria pygmaea, L.; [4]): 5.0
- herbicidal effect rating, SAGPY (Sagittaria pygmaea, L.; [5]): 6.0
- herbicidal effect rating, SAGPY (Sagittaria pygmaea, L.; [6]): 9.0
- herbicidal effect rating, SAGPY (Sagittaria pygmaea, L.; [7]): 9.0
- herbicidal effect rating, CYPIR (Cyperus iria; [4]): 7.0
- herbicidal effect rating, CYPIR (Cyperus iria; [5]): 9.0
- herbicidal effect rating, CYPIR (Cyperus iria; [6]): 9.0
- herbicidal effect rating, CYPIR (Cyperus iria; [7]): 9.0
- herbicidal effect rating, ECHORC [1, 4]: 3.0
- herbicidal effect rating, ECHORC [1, 5]: 7.0
- herbicidal effect rating, ECHORC [1, 6]: 7.0
- herbicidal effect rating, ECHORC [1, 7]: 8.0
- herbicidal effect rating, CYPSE [2, 4]: 0.0
- herbicidal effect rating, CYPSE [2, 5]: 4.0
- herbicidal effect rating, CYPSE [2, 6]: 7.0
- herbicidal effect rating, CYPSE [2, 7]: 8.0
- herbicidal effect rating, MOOVA [3, 4]: 9.0
- herbicidal effect rating, MOOVA [3, 5]: 9.0
- herbicidal effect rating, MOOVA [3, 6]: 9.0
- herbicidal effect rating, MOOVA [3, 7]: 9.0

SMILES: CCS(=O)(=O)NC(=O)C(C)Oc1ccc(C)cc1-c1nsc2ccc(-n3c(=O)cc(C(F)(F)F)n(C)c3=O)cc12 (stereo not shown) [Example 571, Propionamide, 2-{{2-{5-[3,6-dihydro-3-methyl-2,6-dioxo-4-(trifluoromethyl)-1(2H)-pyrimidinyl]-1,2-benzisothiazol-3-yl}-p-tolyl}oxy}-N-(ethylsulfonyl)]
- herbicidal effect rating, SAGPY (Sagittaria pygmaea, L.; [4]): 0.0
- herbicidal effect rating, SAGPY (Sagittaria pygmaea, L.; [5]): 0.0
- herbicidal effect rating, SAGPY (Sagittaria pygmaea, L.; [6]): 0.0
- herbicidal effect rating, SAGPY (Sagittaria pygmaea, L.; [7]): 0.0
- herbicidal effect rating, CYPIR (Cyperus iria; [4]): 0.0
- herbicidal effect rating, CYPIR (Cyperus iria; [5]): 3.0
- herbicidal effect rating, CYPIR (Cyperus iria; [6]): 3.0
- herbicidal effect rating, CYPIR (Cyperus iria; [7]): 9.0
- herbicidal effect rating, ECHORC [1, 4]: 0.0
- herbicidal effect rating, ECHORC [1, 5]: 2.0
- herbicidal effect rating, ECHORC [1, 6]: 3.0
- herbicidal effect rating, ECHORC [1, 7]: 6.0
- herbicidal effect rating, CYPSE [2, 4]: 0.0
- herbicidal effect rating, CYPSE [2, 5]: 0.0
- herbicidal effect rating, CYPSE [2, 6]: 0.0
- herbicidal effect rating, CYPSE [2, 7]: 0.0
- herbicidal effect rating, MOOVA [3, 4]: 0.0
- herbicidal effect rating, MOOVA [3, 5]: 6.0
- herbicidal effect rating, MOOVA [3, 6]: 7.0
- herbicidal effect rating, MOOVA [3, 7]: 9.0

SMILES: Cn1c(C(F)(F)F)cc(=O)n(-c2ccc3snc(C[S+]([O-])c4ccccc4)c3c2)c1=O (stereo not shown) [Example 394, 2,4(1H,3H)-Pyrimidinedione, 1-methyl-3-{3-[(phenylsulfinyl)methyl]-1,2-benzisothiazol-5-yl}-6-(trifluoromethyl)-]
- herbicidal effect rating, SAGPY (Sagittaria pygmaea, L.; [5]): 0.0
- herbicidal effect rating, SAGPY (Sagittaria pygmaea, L.; [6]): 0.0
- herbicidal effect rating, SAGPY (Sagittaria pygmaea, L.; [7]): 0.0
- herbicidal effect rating, CYPIR (Cyperus iria; [4]): 0.0
- herbicidal effect rating, CYPIR (Cyperus iria; [5]): 3.0
- herbicidal effect rating, CYPIR (Cyperus iria; [6]): 5.0
- herbicidal effect rating, CYPIR (Cyperus iria; [7]): 7.0
- herbicidal effect rating, ECHORC [1, 4]: 0.0
- herbicidal effect rating, ECHORC [1, 5]: 0.0
- herbicidal effect rating, ECHORC [1, 6]: 4.0
- herbicidal effect rating, ECHORC [1, 7]: 6.0
- herbicidal effect rating, CYPSE [2, 4]: 0.0
- herbicidal effect rating, CYPSE [2, 5]: 0.0
- herbicidal effect rating, CYPSE [2, 6]: 0.0
- herbicidal effect rating, CYPSE [2, 7]: 2.0
- herbicidal effect rating, MOOVA [3, 4]: 8.0
- herbicidal effect rating, MOOVA [3, 5]: 8.0
- herbicidal effect rating, MOOVA [3, 6]: 9.0
- herbicidal effect rating, MOOVA [3, 7]: 9.0

SMILES: COc1ccc(CC(=O)OCc2nsc3ccc(-n4c(=O)cc(C(F)(F)F)n(C)c4=O)cc23)cc1 [Example 450, 2,4(1H,3H)-Pyrimidinedione, 3-[3-(hydroxymethyl)-1,2-benzisothiazol-5-yl]-1-methyl-6-(trifluoromethyl)-, (p-methoxyphenyl)acetate (ester)]
- SAGPY (Sagittaria pygmaea, L.; [9]): 5.0
- SAGPY (Sagittaria pygmaea, L.; [10]): 5.0
- SAGPY (Sagittaria pygmaea, L.; [11]): 6.0
- SAGPY (Sagittaria pygmaea, L.; [12]): 9.0
- CYPIR (Cyperus iria; [9]): 6.0
- CYPIR (Cyperus iria; [10]): 7.0
- CYPIR (Cyperus iria; [11]): 9.0
- CYPIR (Cyperus iria; [12]): 9.0
- ECHORC [1, 9]: 0.0
- ECHORC [1, 10]: 2.0
- ECHORC [1, 11]: 6.0
- ECHORC [1, 12]: 9.0
- CYPSE ([2]; 0.0320 kg/ha, preemergence weeds, herbicidal effect rating 0-9, three to four weeks after treatment): 0.0
- MOOVA [3, 9]: 7.0
- MOOVA [3, 10]: 7.0
- MOOVA [3, 11]: 9.0
- MOOVA [3, 12]: 9.0

SMILES: Cn1c(C(F)(F)F)cc(=O)n(-c2ccc3snc(C(C#N)=Cc4ccccc4C#N)c3c2)c1=O [Example 606, 1,2-Benzisothiazole-3-acetonitrile, alpha-(o-cyanobenzylidene)-5-[3,6-dihydro-3-methyl-2,6-dioxo-4-(trifluoromethyl)-1(2H)-pyrimidinyl]-, (E)- and (Z)-]
- herbicidal effect rating, SAGPY (Sagittaria pygmaea, L.; [4]): 0.0
- herbicidal effect rating, SAGPY (Sagittaria pygmaea, L.; [6]): 3.0
- herbicidal effect rating, SAGPY (Sagittaria pygmaea, L.; [7]): 4.0
- herbicidal effect rating, CYPIR (Cyperus iria; [4]): 4.0
- herbicidal effect rating, CYPIR (Cyperus iria; [5]): 6.0
- herbicidal effect rating, CYPIR (Cyperus iria; [6]): 6.0
- herbicidal effect rating, CYPIR (Cyperus iria; [7]): 9.0
- herbicidal effect rating, ECHORC [1, 4]: 5.0
- herbicidal effect rating, ECHORC [1, 5]: 5.0
- herbicidal effect rating, ECHORC [1, 6]: 5.0
- herbicidal effect rating, ECHORC [1, 7]: 6.0
- herbicidal effect rating, CYPSE [2, 4]: 0.0
- herbicidal effect rating, CYPSE [2, 5]: 2.0
- herbicidal effect rating, CYPSE [2, 6]: 2.0
- herbicidal effect rating, CYPSE [2, 7]: 2.0
- herbicidal effect rating, MOOVA [3, 4]: 6.0
- herbicidal effect rating, MOOVA [3, 5]: 7.0
- herbicidal effect rating, MOOVA [3, 6]: 7.0
- herbicidal effect rating, MOOVA [3, 7]: 9.0

SMILES: CC(OS(C)(=O)=O)c1nsc2ccc(-n3c(=O)cc(C(F)(F)F)n(C)c3=O)cc12 (stereo not shown) [Example 309, 2,4(1H,3H)-Pyrimidinedione, 3-[3-(1-hydroxyethyl)-1,2-benzisothiazol-5-yl]-1-methyl-6-(trifluoromethyl)-, methanesulfonate (ester)]
- herbicidal effect rating, SAGPY (Sagittaria pygmaea, L.; [13]): 2.0
- herbicidal effect rating, SAGPY (Sagittaria pygmaea, L.; [14]): 3.0
- herbicidal effect rating, SAGPY (Sagittaria pygmaea, L.; [15]): 4.0
- herbicidal effect rating, SAGPY (Sagittaria pygmaea, L.; [16]): 8.0
- herbicidal effect rating, CYPIR (Cyperus iria; [13]): 9.0
- herbicidal effect rating, CYPIR (Cyperus iria; [14]): 9.0
- herbicidal effect rating, CYPIR (Cyperus iria; [15]): 9.0
- herbicidal effect rating, CYPIR (Cyperus iria; [16]): 9.0
- herbicidal effect rating, ECHORC [1, 13]: 1.0
- herbicidal effect rating, ECHORC [1, 14]: 2.0
- herbicidal effect rating, ECHORC [1, 15]: 4.0
- herbicidal effect rating, ECHORC [1, 16]: 7.0
- herbicidal effect rating, CYPSE [2, 13]: 0.0
- herbicidal effect rating, CYPSE [2, 14]: 0.0
- herbicidal effect rating, CYPSE [2, 15]: 0.0
- herbicidal effect rating, CYPSE [2, 16]: 7.0
- herbicidal effect rating, MOOVA [3, 13]: 6.0
- herbicidal effect rating, MOOVA [3, 14]: 6.0
- herbicidal effect rating, MOOVA [3, 15]: 9.0
- herbicidal effect rating, MOOVA [3, 16]: 9.0
